Results as given in ChEMBL document CHEMBL3886166, “Heterocyclic compounds” (2015).

Target: T1, Transient receptor potential cation channel subfamily V member 1 (Homo sapiens, UniProt Q8NER1)
Experiment: Capsaicin-Based Assay: Two days prior to performing this assay, cells are seeded in poly-D-lysine-coated 96-well clear-bottom black plates (50,000 cells/well) in growth media containing 5 uM PonA (commercially available from Invitrogen) to induce expression of TRPV1. On the day of the assay, the plates are washed with 0.2 mL 1x Hank's Balanced Salt Solution (commercially available from Life Technologies) containing 1 mM CaCl2 and 20 mM HEPES, pH 7.4, and cells are loaded using 0.1 mL of wash buffer containing Fluo-4 (3 uM final). After one hour, the cells are washed twice with 0.2 mL of wash buffer and resuspended in 0.1 mL of wash buffer. The plates are transferred to a FLIPR for assay. 50 uL of test compound diluted with assay buffer (1x Hank's Balanced Salt Solution containing 1 mM CaCl2 and 20 mM HEPES, pH 7.4) are added to the cell plates and incubated for 2 min. The final concentration of the compound is adjusted to range from about 50 picoM to about 3 uM.

T1 sequence (Q8NER1 whole entry): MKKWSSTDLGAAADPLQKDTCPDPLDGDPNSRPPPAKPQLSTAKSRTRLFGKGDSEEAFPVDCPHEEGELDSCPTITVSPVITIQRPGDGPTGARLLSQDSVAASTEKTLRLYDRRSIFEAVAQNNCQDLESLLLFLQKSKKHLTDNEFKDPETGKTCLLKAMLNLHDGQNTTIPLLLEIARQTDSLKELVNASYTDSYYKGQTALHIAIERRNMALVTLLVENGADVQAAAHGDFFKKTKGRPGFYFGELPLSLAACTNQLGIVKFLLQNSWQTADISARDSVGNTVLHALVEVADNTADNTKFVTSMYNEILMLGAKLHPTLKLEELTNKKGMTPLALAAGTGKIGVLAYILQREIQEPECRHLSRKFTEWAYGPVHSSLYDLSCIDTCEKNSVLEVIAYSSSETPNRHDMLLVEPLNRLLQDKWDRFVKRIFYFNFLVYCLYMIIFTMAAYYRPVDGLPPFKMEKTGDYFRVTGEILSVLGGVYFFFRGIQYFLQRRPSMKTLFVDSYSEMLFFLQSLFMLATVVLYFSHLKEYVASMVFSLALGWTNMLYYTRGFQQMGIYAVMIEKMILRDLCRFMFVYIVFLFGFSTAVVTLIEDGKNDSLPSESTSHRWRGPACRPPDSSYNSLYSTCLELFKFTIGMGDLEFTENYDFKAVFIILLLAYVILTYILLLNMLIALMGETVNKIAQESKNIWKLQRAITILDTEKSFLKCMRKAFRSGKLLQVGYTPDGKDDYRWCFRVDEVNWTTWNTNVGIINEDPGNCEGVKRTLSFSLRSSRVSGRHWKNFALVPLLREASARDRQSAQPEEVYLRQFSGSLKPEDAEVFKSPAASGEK

IC50, < 100 nM:
O=C(Nc1ccc(C(F)(F)F)cn1)N1CC=C(c2ncc(-c3nc(CO)no3)cc2Cl)CC1
Cc1cc(NC(=O)N2CCC(F)(c3ncc(-c4ocnc4CO)cc3Cl)CC2)ccc1C(F)(F)F
O=C(Nc1ccc(C(F)(F)F)c(Cl)c1)N1CC=C(c2ncc(-c3noc(CO)n3)cc2Cl)CC1
Cc1nnc(-c2cnc(C3=CCN(C(=O)Nc4ccc(OC(F)(F)F)cc4)CC3)c(Cl)c2)o1
O=C(C#Cc1ccc(-c2nnc(CO)o2)cc1Cl)Nc1ccc(C(F)(F)F)c(Cl)c1
O=C(Nc1ccc(C(F)(F)F)cc1)N1CC=C(c2ncc(-c3nnc(CO)o3)cc2Cl)CC1
O=C(Nc1ccc(C(F)(F)F)cn1)N1CC=C(c2ncc(-c3noc(CO)n3)cc2Cl)CC1
O=C(C#Cc1ccc(-c2nnc(CO)o2)cc1Cl)Nc1ccc(C(F)(F)F)cc1
O=C(Nc1ccc(C(F)(F)F)c(Cl)c1)N1CC=C(c2ncc(-c3nnc(CO)o3)cc2Cl)CC1
O=C(Nc1ccc(C(F)(F)F)cn1)N1CCN(c2ncc(-c3nnc(CO)o3)cc2Cl)CC1
O=C(Nc1ccc(C(F)(F)F)cn1)N1CC=C(c2ncc(-c3nnc(CO)o3)cc2Cl)CC1
Cc1cc(NC(=O)N2CC=C(c3ncc(-c4nc(CO)no4)cc3F)CC2)ccc1C(F)(F)F
Cc1nnc(-c2cnc(C3=CCN(C(=O)Nc4ccc(C(F)(F)F)cc4)CC3)c(Cl)c2)o1
O=C(Nc1ccc(C(F)(F)F)cn1)N1CC=C(c2ncc(-c3nc(CO)no3)cc2F)CC1

Target: T1, Transient receptor potential cation channel subfamily V member 1
Experiment: pH-Based Assay: Two days prior to performing this assay, cells are seeded on poly-D-lysine-coated 96-well clear-bottom black plates (commercially available from Becton-Dickinson) at 75,000 cells/well in growth media containing 5 uM PonA (commercially available from Invitrogen) to induce expression of TRPV1. On the day of the assay, the plates are washed with 0.2 mL 1x Hank's Balanced Salt Solution (commercially available from Life Technologies) containing 1.6 mM CaCl2 and 20 mM HEPES, pH 7.4 (wash buffer), and loaded using 0.1 mL of wash buffer containing Fluo-4 (3 uM final concentration, commercially available from Molecular Probes). After 1 h, the cells are washed twice with 0.2 mL wash buffer and resuspended in 0.05 mL 1x Hank's Balanced Salt Solution (commercially available from Life Technologies) containing 3.5 mM CaCl2 and 10 mM Citrate, pH 7.4 (assay buffer). Plates are then transferred to a FLIPR for assay.

IC50, < 100 nM:
O=C(Nc1ccc(C(F)(F)F)cn1)N1CCN(c2ncc(-c3nc(CO)no3)cc2Cl)CC1
Cc1cc(NC(=O)N2CC=C(c3ncc(-c4nnc(CCO)o4)cc3Cl)CC2)ccc1OC(F)(F)F
Cc1noc(-c2cnc(C3=CCN(C(=O)Nc4ccc(OC(F)(F)F)cc4)CC3)c(Cl)c2)n1
O=C(Nc1ccc(C(F)(F)F)cn1)N1CC=C(c2ncc(-c3cnc(CO)o3)cc2Cl)CC1
Cc1cc(NC(=O)N2CC=C(c3ncc(-c4nnc(CCO)o4)cc3Cl)CC2)ccc1C(F)(F)F
Cc1cc(NC(=O)N2CCN(c3ncc(-c4nc(CO)no4)cc3Cl)CC2)ccc1C(F)(F)F
O=C(Nc1ccc(C(F)(F)F)c(Cl)c1)N1CCN(c2ncc(-c3nnc(CO)o3)cc2Cl)CC1
Cc1cc(NC(=O)N2CC=C(c3ncc(-c4nc(CO)no4)cc3Cl)CC2)ccc1C(F)(F)F
O=C(Nc1ccc(C(F)(F)F)c(Cl)c1)N1CC=C(c2ncc(-c3ocnc3CO)cc2Cl)CC1
Cc1cc(NC(=O)N2CCN(c3ncc(-c4nnc(CO)o4)cc3Cl)CC2)ccc1C(F)(F)F
Cc1nnc(-c2cnc(C3=CCN(C(=O)Nc4ccc(C(F)(F)F)cn4)CC3)c(Cl)c2)o1
O=C(Nc1ccc(C(F)(F)F)c(Cl)c1)N1CCC(F)(c2ncc(-c3nc(CO)no3)cc2Cl)CC1
Cc1noc(-c2cnc(C3=CCN(C(=O)Nc4ccc(C(F)(F)F)cc4)CC3)c(Cl)c2)n1
O=C(Nc1ccc(C(F)(F)F)c(Cl)c1)N1CC=C(c2ncc(-c3cc(CO)on3)cc2Cl)CC1
O=C(Nc1ccc(C(F)(F)F)cn1)N1CC=C(c2ccc(-c3nnc(CO)o3)cc2Cl)CC1
O=C(Nc1ccc(C(F)(F)F)cn1)N1CC=C(c2ncc(-c3cc(CO)on3)cc2Cl)CC1
Cc1cc(NC(=O)N2CCC(F)(c3ncc(-c4nc(CO)no4)cc3Cl)CC2)ccc1C(F)(F)F
O=C(Nc1ccc(C(F)(F)F)c(Cl)c1)N1CCC(F)(c2ncc(-c3noc(CO)n3)cc2Cl)CC1
O=C(Nc1ccc(C(F)(F)F)cn1)N1CCC(F)(c2ncc(-c3noc(CO)n3)cc2Cl)CC1
